#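 Cultured in 96-well plates, cells were exposed to test compound for 48 hours across five concentrations. The concentration for full growth arrest is given as TGI.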 Calls of active or inactive are those of the source. Rule as the data show it: active = GI50 below about 0.43 µM; inactive = the rest. Where a SMILES comes first, the peptide text is derived from it. Side-chain parts run from the residue outwards. The star is where a group is joined. Cbz = O=C(OCc1ccccc1)*; Boc = CC(C)(C)OC(=O)*
# Legend:
# Test in all cases: NCI anticancer screen, dose series, 48 h
# MOLT-4 leukemia = test system: MOLT-4 leukemia
# CCRF-CEM leukemia = test system: CCRF-CEM leukemia
# 786-0 renal = test system: 786-0 renal
# SK-MEL-5 melanoma = test system: SK-MEL-5 melanoma
# A549 NSCLC = test system: A549 NSCLC
# COLO 205 colon = test system: COLO 205 colon
# KM12 colon = test system: KM12 colon
# HS 578T breast = test system: HS 578T breast
# HOP-92 NSCLC = test system: HOP-92 NSCLC
# A498 renal = test system: A498 renal
SMILES,TGI (MOLT-4 leukemia) [µM],TGI (CCRF-CEM leukemia) [µM],TGI (786-0 renal) [µM],TGI (SK-MEL-5 melanoma) [µM],TGI (A549 NSCLC) [µM],TGI (COLO 205 colon) [µM],TGI (KM12 colon) [µM],TGI (HS 578T breast) [µM],TGI (HOP-92 NSCLC) [µM],TGI (A498 renal) [µM],outcome (MOLT-4 leukemia),outcome (HS 578T breast),outcome (CCRF-CEM leukemia),outcome (786-0 renal),outcome (HOP-92 NSCLC),outcome (A498 renal)
CC(C)(C)OC(=O)NC(CCCCNC(=O)CNC(=O)OCc1ccccc1)C(=O)NC(CCCCNC(=O)CNC(=O)OCc1ccccc1)C(=O)NC(CCCCNC(=O)CNC(=O)OCc1ccccc1)C(=O)NC(CCCCNC(=O)CNC(=O)OCc1ccccc1)C(=O)O (configuration not stated) (Boc-K([Gly-Cbz])K([Gly-Cbz])K([Gly-Cbz])K([Gly-Cbz])-OH; configuration not given here),> 100,> 100,> 100,> 100,> 100,–,–,–,–,–,–,–,–,–,–,–
NCCS(=O)(=O)O,> 100,> 100,> 100,> 100,> 100,> 100,> 100,> 100,> 100,–,–,–,–,–,–,–
O=C1CCCCN1C(=O)c1ccc([N+](=O)[O-])cc1,> 100,> 100,> 100,> 100,> 100,–,> 100,> 100,> 100,> 100,–,–,–,–,–,–
O=P(O)(O)CN1CCNCCN(CP(=O)(O)O)CCN(CP(=O)(O)O)CCNCC1,–,–,–,–,–,–,–,–,–,–,inactive,inactive,inactive,inactive,inactive,inactive
CC1(C)CN=CC(C)(OCc2ccccc2)C(=O)NC(C)(C)CN=CC(C)(OCc2ccccc2)C(=O)N1 (configuration not stated),> 10,> 10,> 10,> 10,> 10,–,> 10,> 10,0.808,> 10,–,–,–,–,–,–
C1=CN2C[n+]3ccc4ccccc4c3N=C2c2ccccc21,13.3,23.7,10.3,1.5,21.6,4.26,10.7,30.4,7.92,–,–,–,–,–,–,–
O=c1[nH]c(=O)n(COCc2ccccc2)c2ccccc12,> 100,> 100,> 100,> 100,> 100,> 100,> 100,–,> 100,> 100,–,–,–,–,–,–
CCC(=O)N1C(=O)C(CC)(CC)C(=O)N1C(=O)CC,> 100,> 100,> 100,> 100,> 100,> 100,> 100,> 100,–,–,–,–,–,–,–,–
O=C1CCC2(c3ccc(Cl)cc3)Nc3ncncc3N12 (configuration not stated),> 10,> 10,> 10,–,> 10,–,> 10,> 10,> 10,–,–,–,–,–,–,–
CCN(CC)C1Oc2cc3c(cc2C(c2cccc(OC)c2O)C1C)OCO3 (configuration not stated),28,16.3,26.3,13.6,24.6,13.6,16.6,18.7,–,7.24,–,–,–,–,–,–
COc1ccc(C2=NNC(c3cc4cc(Br)ccc4nc3Cl)C2)cc1 (configuration not stated),> 25,5.28,> 25,–,–,> 25,> 25,24.2,> 25,> 25,–,–,–,–,–,–
O=C(NNS(=O)(=O)c1ccccc1)c1csc(NC(=S)NC2CCCCC2)n1,> 100,> 100,32.4,27.6,> 100,43.3,> 100,–,> 100,> 100,–,–,–,–,–,–
